What was measured:
line DC-3F/AD [1] = assay: Cytotoxicity (Microculture Tetrazolium Assay): reversal of resistance to actinomycin D, line DC-3F/AD; assay type: cell-based, Chinese hamster; conditions: 4 days
From the text: The pharmacological study of the compounds of the present invention consisted first of all in an evaluation in vitro carried out on resistant cells. The parameter measured is the cytotoxicity of the antitumour drug, quantified in the absence and in the presence of the reversing compound.
The cells are distributed on microplates and exposed to the cytotoxic compounds (actinomycin D for line DC-3F/AD and adriamycin for line KB-Al) at 9 concentrations (2 by 2 series dilutions). The compounds tested for their capacity to reverse MDR are added at the same time as the cytotoxic agent.
The cells are then incubated for 4 days. […] The results are expressed as a reversion factor (RF): PG,29 [formula]

line DC-3F/AD [2] = assay: Flow cytometry: intracellular accumulation of adriamycin by cells of the line DC-3F/AD; assay type: cell-based, Chinese hamster; conditions: ADR 50 μM, 5 hours
From the text: Also measured was the effect of the compounds on the intracellular concentration of the cytotoxic agent. In effect, the known compounds for reversing MDR act by increasing the intracellular concentration of cytotoxic agent. This effect is the consequence of inhibiting the action of gP 170 which is responsible for the efflux of the drug.
By measuring that fluorescence, it is thus possible to obtain a relative measurement of the intracellular concentration of ADR.
The cells 500×10^3 per ml were exposed simultaneously to ADR at a fixed concentration (50 μM) and to the tested compounds at various concentrations. After 5 hours' incubation, the intracellular accumulation of ADR was evaluated by FCM. […] The analysis of each of the samples was carried out on a total of 10,000 cells at a rate of 1,000 cells per second.
The results were presented in the form of linear histograms of the intracellular ADR fluorescence.
Expression of the results: for each of the histograms the mean fluorescence per channel (MEAN) was determined by the information system of the apparatus. For all experiments:
a negative control (cells without ADR) fixed the autofluorescence threshold.
a positive control (cells with ADR) determined the MEAN value=MN1.
the "test" tubes (cells with ADR and with compound) were used to determine, for each of the compounds and at each of the concentrations, the MEAN values=MN2.
The results are expressed in the form of variations from the mean fluorescence obtained for each of the "test" tubes (MN2) in relation to the mean fluorescence obtained with the positive control (MNl): VAR-MEAN=MN2-MN1. The parameter expressed is thus the increase in ADR fluorescence in the presence of the tested compounds.

Compound | Reversion factors (cytotoxicity) with the line DC-3F/AD (line DC-3F/AD [1]; 1 μM compound) | Reversion factors (cytotoxicity) with the line DC-3F/AD (line DC-3F/AD [1]; 5 μM compound) | VAR-MEAN (increase in ADR fluorescence), line DC-3F/AD (line DC-3F/AD [2]; 1.0 μM compound) | VAR-MEAN (increase in ADR fluorescence), line DC-3F/AD (line DC-3F/AD [2]; 5.0 μM compound) | VAR-MEAN (increase in ADR fluorescence), line DC-3F/AD (line DC-3F/AD [2]; 10 μM compound) | VAR-MEAN (increase in ADR fluorescence), line DC-3F/AD (line DC-3F/AD [2]; […] compound) | Reversion factors (cytotoxicity) with the line DC-3F/AD (line DC-3F/AD [1]; 0.5 μM compound)
C=CCNc1nc(NCC=C)nc(N2CCN(CC3c4ccccc4CCc4ccccc43)CC2)n1 [Example 25, 2,4-diallylamino-6-{4-[(10,11-dihydro-5H-dibenzo[a,d]cyclohepten-5-yl)methyl]piperazin-1-yl}-1,3,5-triazine] | 13 | 464 | 9.9 | 17.6 | 24.5 | 14.7 | –
C=CCNc1nc(NCC=C)nc(N2CCC(NCC34CCC(c5ccccc53)c3ccccc34)CC2)n1 [Example 10, 2,4-diallylamino-6-{4-[(9,10-dihydro-9,10-ethanoanthracen-9-yl)methylamino]piperidin-1-yl}-1,3,5-triazine] | 1.9 | 96 | 12.3 | 20.2 | 30.7 | 13.5 | 1
C=CCNc1nc(NCC=C)nc(NCCN2CCC(NC3c4ccccc4CCc4ccccc43)CC2)n1 [Example 12, 2,4-diallylamino-6-{2-[4-(10,11-dihydro-5H-dibenzo[a,d]cyclohepten-5-ylamino)piperidin-1-yl]ethylamino}-1,3,5-triazine] | 0.9 | 64 | 5.4 | 10.4 | 18.3 | 10.3 | 0.9
C=CCNc1nc(NCC=C)nc(N2CCC(NCC3c4ccccc4CSc4ccccc43)CC2)n1 (racemic) [Example 26, 2,4-diallylamino-6-{4-[((R,S)-6,11-dihydro-dibenzo[b,e]thiepin-11-yl)methylamino]piperidin-1-yl}-1,3,5-triazine] | 6.8 | 866.6 | 4.3 | 33.5 | 32.6 | 17.8 | –
C=CCNc1nc(N)nc(N2CCC(NCC3c4ccccc4CCc4ccccc43)CC2)n1 [Example 18, 2-allylamino-4-amino-6-{4-[(10,11-dihydro-5H-dibenzo[a,d]cyclohepten-5-yl)methylamino]piperidin-1-yl}-1,3,5-triazine] | 3 | 421 | 5.5 | 6.7 | 11.0 | 7.4 | 1.2
C=CCNc1nc(NCC=C)nc(N2CCC(NCC3c4ccccc4Oc4ccccc43)CC2)n1 [Example 9, 2,4-diallylamino-6-[4-(xanthen-9-ylmethylamino)-piperidin-1-yl]-1,3,5-triazine] | 39 | 844 | 13.4 | 19.4 | 25.7 | 18.1 | 4.8
C=CCNc1nc(NCC=C)nc(NCC2CCN(CC3c4ccccc4CCc4ccccc43)CC2)n1 [Example 8, 2,4-diallylamino-6-{[1-[(10,11-dibenzo[a,d]cyclohepten-5-yl)methyl]piperidin-4-yl]methylamino}-1,3,5-triazine] | 1.6 | 353 | 1.3 | 19.3 | 21.0 | 11.4 | 0.8
